Test results: US20160237059A1, “HETEROCYCLIC SUBSTITUTED TRIFLUOROMETHYL PYRIMIDINONES AND THEIR USE” (BAYER PHARMA AKTIENGESELLSCHAFT, priority 2013, published 2016)

Key:
human CCR2 = biological target: T1, human CCR2 (Homo sapiens, UniProt P41597); experiment: Functional Ca2+ release test (B-1); format: cell-based; settings: Chem-1 cell line transfected with human CCR2; 50% inhibition of the MCP-1 effect, MCP-1 at EC50 (about 5 nM); in some cases means of several determinations
T1 construct: host or cells: Chem-1 cell line
T1 sequence (P41597 1-360 isoform P41597-2): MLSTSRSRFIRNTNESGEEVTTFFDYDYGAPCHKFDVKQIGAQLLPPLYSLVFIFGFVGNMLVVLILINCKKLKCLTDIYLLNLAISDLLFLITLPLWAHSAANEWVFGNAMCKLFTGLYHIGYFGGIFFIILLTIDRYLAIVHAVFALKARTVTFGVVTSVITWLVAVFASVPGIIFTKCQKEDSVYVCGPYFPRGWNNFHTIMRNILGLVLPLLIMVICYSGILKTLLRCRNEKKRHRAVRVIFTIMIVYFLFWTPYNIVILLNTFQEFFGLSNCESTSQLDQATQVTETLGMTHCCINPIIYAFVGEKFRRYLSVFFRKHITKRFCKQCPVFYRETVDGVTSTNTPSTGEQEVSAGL
Outline: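 Inhibition of MCP-1-evoked Ca2+ release was measured over 120 s by fluorescence imaging in Fluo-4-loaded, human CCR2-transfected Chem-1 cells. Compounds, tested in 10-point 1:3.16 series, were added 10 min before agonist at its EC50 (typically about 5 nM). IC50 values were obtained by 4-parameter logistic fitting.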

murine CCR2 = biological target: T2, murine CCR2 (Mus musculus, UniProt P51683); experiment: Functional β-arrestin recruiting test with human MCP-1 (B-2a); format: cell-based; settings: U2OS β-arrestin cell line transfected with murine CCR2; agonist human MCP-1 at EC50 (about 3 nM); in some cases means of several determinations
T2 construct: host or cells: U2OS β-arrestin cell line
T2 sequence (P51683 whole entry): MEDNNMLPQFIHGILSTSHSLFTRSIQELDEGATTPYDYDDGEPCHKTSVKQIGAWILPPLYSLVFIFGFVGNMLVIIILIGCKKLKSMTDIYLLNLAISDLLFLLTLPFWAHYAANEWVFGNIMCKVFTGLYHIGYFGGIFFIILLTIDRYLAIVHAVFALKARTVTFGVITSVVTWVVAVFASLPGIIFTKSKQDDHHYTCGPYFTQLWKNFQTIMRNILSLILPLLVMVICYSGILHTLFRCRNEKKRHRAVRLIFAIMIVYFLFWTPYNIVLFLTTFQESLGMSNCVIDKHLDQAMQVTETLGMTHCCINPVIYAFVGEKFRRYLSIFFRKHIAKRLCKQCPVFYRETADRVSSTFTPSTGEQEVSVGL
Description: The antagonistic action of test substances on CCR2 was determined in a β-arrestin test. The PathHunter β-arrestin GPCR test system (DiscoveRx Corporation, Ltd.) is a cell-based functional method for detecting binding of β-arrestin to an activated receptor. The molecular basis is a […] complementation measured by the enzymatic conversion of a chemiluminescent substrate. The test cell used was a U2OS β-arrestin cell line transfected with murine CCR2 (93-0543C3, DiscoveRx Corporation, Ltd.).
The test substances were dissolved in dimethyl sulphoxide (DMSO) at a concentration of 10 mM and serially diluted with DMSO in steps of 1:3.16 for a 10-point dose/activity analysis. According to the desired test concentrations, the substances were pre-diluted in Tyrode with 2 mM CaCl2 and 0.05% BSA.
The cells, cultivated in MEM Eagle (supplemented with 10% FCS, 50 U/ml of penicillin, 50 μg/ml of streptomycin, 250 μg/ml of hygromycin and 500 μg/ml of geniticin), were sown at 2000 cells/25 μl in 384 well, μCLEAR/black cell culture plates from Greiner (#781092) and incubated at 37° C. for 24 h. The sowing medium consisted of Opti-MEM (supplemented with 1% FCS, 50 U/ml of penicillin and 50 μg/ml of streptomycin). The cells were pre-incubated for 10 min with 10 μl of the test substances diluted in buffer, and 10 μl of agonist solution [human MCP-1 (PeproTech, #300-04) in Tyrode with 0.05% BSA) were then added. The human MCP-1 was employed at the concentration which corresponds to the EC50 which had been determined in a preliminary test (usually about 3 nM). After 90 min of incubation at 37° C., the solution was removed, and recruitment of β-arrestin to CCR2 was detected with the aid of the PathHunter detection reagent (93-001, DiscoveRx Corporation, Ltd.) according to the instructions of the manufacturer. Luminescence was measured after an incubation time of 60 min using a proprietary luminescence imaging measuring instrument. The molar concentration of the test substance which caused 50% inhibition of the MCP-1 effect (IC50) was determined using a 4-parameter logistic function (Hill function).

Row | IC50 (human CCR2) [nM] | IC50 (murine CCR2) [nM] | Structure (SMILES)
1 | 320 | 6500 | Nc1nc[nH]c1-c1nc(C(F)(F)F)c(Oc2ccc(Cl)c(Cl)c2)c(=O)[nH]1 [Example 64, 2-(4-amino-1H-imidazol-5-yl)-5-(3,4-dichlorophenoxy)-6-(trifluoromethyl)pyrimidin-4(3H)-one]
2 | 41 | 730 | Cn1cc(Nc2nc(C(F)(F)F)c(Oc3ccc(Cl)c(Cl)c3)c(=O)[nH]2)cn1 [Example 110, 5-(3,4-dichlorophenoxy)-2-[(1-methyl-1H-pyrazol-4-yl)amino]-6-(trifluoromethyl)pyrimidin-4(3H)-one]
3 | 59 | 480 | Cc1cc(Nc2nc(C(F)(F)F)c(Oc3ccc(Cl)c(Cl)c3)c(=O)[nH]2)on1 [Example 109]
4 | 260 | 980 | O=c1[nH]c(Cn2cncn2)nc(C(F)(F)F)c1Cc1ccc(Cl)c(Cl)c1 [Example 173, 5-(3,4-dichlorobenzyl)-2-(1H-1,2,4-triazol-1-ylmethyl)-6-(trifluoromethyl)pyrimidin-4(3H)-one]
5 | 360 | 630 | O=c1[nH]c(CN2CCOCC2)nc(C(F)(F)F)c1Cc1ccc(Cl)c(Cl)c1 [Example 261, 5-(3,4-Dichlorobenzyl)-2-(morpholin-4-ylmethyl)-6-(trifluoromethyl)pyrimidin-4(3H)-one]
6 | 160 | 1400 | O=c1[nH]c(NC2CCOC2)nc(C(F)(F)F)c1Oc1ccc(Cl)c(Cl)c1 (stereo not drawn) [Example 245]
7 | 180 | 680 | Cn1nc(Cc2nc(C(F)(F)F)c(Cc3ccc(Cl)c(Cl)c3)c(=O)[nH]2)[nH]c1=O [Example 263, 5-(3,4-Dichlorobenzyl)-2-[(1-methyl-5-oxo-4,5-dihydro-1H-1,2,4-triazol-3-yl)methyl]-6-(trifluoromethyl)pyrimidin-4(3H)-one]
8 | 4.4 | 110 | O=c1[nH]c(-c2cn[nH]c2)nc(C(F)(F)F)c1Oc1ccc(Cl)c(Cl)c1 [Example 66, 5-(3,4-dichlorophenoxy)-2-(1H-pyrazol-4-yl)-6-(trifluoromethyl)pyrimidin-4(3H)-one]
9 | 45 | 460 | CCOC(=O)C1CCN(c2nc(C(F)(F)F)c(Cc3ccc(Cl)c(Cl)c3)c(=O)[nH]2)CC1 [Example 176, ethyl 1-[5-(3,4-dichlorobenzyl)-6-oxo-4-(trifluoromethyl)-1,6-dihydropyrimidin-2-yl]piperidine-4-carboxylate]
10 | 400 | 1000 | O=c1[nH]c(CC2CCOCC2)nc(C(F)(F)F)c1Cc1ccc(Cl)c(Cl)c1 [Example 171]
11 | 6.6 | 220 | Nc1cccc(-c2nc(C(F)(F)F)c(Oc3ccc(Cl)c(Cl)c3)c(=O)[nH]2)n1 [Example 43, 2-(6-aminopyridin-2-yl)-5-(3,4-dichlorophenoxy)-6-(trifluoromethyl)pyrimidin-4(3H)-one]
12 | 58 | 620 | O=c1[nH]nc(Cc2nc(C(F)(F)F)c(Cc3ccc(Cl)c(Cl)c3)c(=O)[nH]2)[nH]1 [Example 90, 5-(3,4-Dichlorobenzyl)-2-[(5-oxo-4,5-dihydro-1H-1,2,4-triazol-3-yl)methyl]-6-(trifluoromethyl)pyrimidin-4(3H)-one]
13 | 360 | 1400 | O=c1[nH]c(N2CCCC2)nc(C(F)(F)F)c1Cc1ccc(Cl)c(Cl)c1 [Example 175, 5-(3,4-dichlorobenzyl)-2-(pyrrolidin-1-yl)-6-(trifluoromethyl)pyrimidin-4(3H)-one]
14 | 13 | 180 | Cc1cccc(-c2nc(C(F)(F)F)c(Oc3ccc(Cl)c(Cl)c3)c(=O)[nH]2)n1 [Example 9, 5-(3,4-dichlorophenoxy)-2-(6-methylpyridin-2-yl)-6-(trifluoromethyl)pyrimidin-4(3H)-one]
15 | 59 | 360 | O=C1NCCN1c1nc(C(F)(F)F)c(Cc2ccc(Cl)c(Cl)c2)c(=O)[nH]1 [Example 111, 5-(3,4-Dichlorobenzyl)-2-(2-oxoimidazolidin-1-yl)-6-(trifluoromethyl)pyrimidin-4(3H)-one]
16 | 19 | 110 | COCc1nc(-c2nc(C(F)(F)F)c(Oc3ccc(Cl)c(Cl)c3)c(=O)[nH]2)no1 [Example 81, 5-(3,4-dichlorophenoxy)-2-[5-(methoxymethyl)-1,2,4-oxadiazol-3-yl]-6-(trifluoromethyl)pyrimidin-4(3H)-one x N,N-diisopropylethylamine]
17 | 3.5 | 110 | O=c1[nH]c(-c2ccccn2)nc(C(F)(F)F)c1Cc1ccc(Cl)c(Cl)c1 [Example 1, 5-(3,4-Dichlorobenzyl)-2-(pyridin-2-yl)-6-(trifluoromethyl)pyrimidin-4(3H)-one]
18 | 14 | 140 | O=c1[nH]c(-c2ncc(F)cc2F)nc(C(F)(F)F)c1Cc1ccc(Cl)c(Cl)c1 [Example 18, 5-(3,4-dichlorobenzyl)-2-(3,5-difluoropyridin-2-yl)-6-(trifluoromethyl)pyrimidin-4(3H)-one]
19 | 36 | 220 | Cn1ncc(-c2nc(C(F)(F)F)c(Cc3ccc(Cl)c(Cl)c3)c(=O)[nH]2)c1N [Example 61, 2-(5-amino-1-methyl-1H-pyrazol-4-yl)-5-(3,4-dichlorobenzyl)-6-(trifluoromethyl)pyrimidin-4(3H)-one]
20 | 31 | 96 | N=c1[nH]c(-c2nc(C(F)(F)F)c(Oc3ccc(Cl)c(Cl)c3)c(=O)[nH]2)no1 [Example 85, 5-(3,4-Dichlorophenoxy)-2-(5-imino-4,5-dihydro-1,2,4-oxadiazol-3-yl)-6-(trifluoromethyl)pyrimidin-4(3H)-one]
21 | 38 | 900 | Cn1nccc1-c1nc(C(F)(F)F)c(Oc2ccc(Cl)c(Cl)c2)c(=O)[nH]1 [Example 56, 5-(3,4-dichlorophenoxy)-2-(1-methyl-1H-pyrazol-5-yl)-6-(trifluoromethyl)pyrimidin-4(3H)-one]
22 | 3.2 | 190 | COc1cnccc1-c1nc(C(F)(F)F)c(Cc2ccc(Cl)c(Cl)c2)c(=O)[nH]1 [Example 26]
23 | 50 | 370 | COc1cccnc1Nc1nc(C(F)(F)F)c(Oc2ccc(Cl)c(C(F)(F)F)c2)c(=O)[nH]1 [Example 103, 5-[4-chloro-3-(trifluoromethyl)phenoxy]-2-[(3-methoxypyridin-2-yl)amino]-6-(trifluoromethyl)pyrimidin-4(3H)-one]
24 | 51 | 1500 | COc1ccc2nc(-c3nc(C(F)(F)F)c(Oc4ccc(Cl)c(Cl)c4)c(=O)[nH]3)ccc2c1 [Example 177, 5-(3,4-dichlorophenoxy)-2-(6-methoxyquinolin-2-yl)-6-(trifluoromethyl)pyrimidin-4(3H)-one]
25 | 5.5 | 100 | O=c1[nH]c(-c2cn[nH]c2)nc(C(F)(F)F)c1Cc1ccc(Cl)c(Cl)c1 [Example 63, 5-(3,4-dichlorobenzyl)-2-(1H-pyrazol-4-yl)-6-(trifluoromethyl)pyrimidin-4(3H)-one]
26 | 30 | 160 | O=c1[nH]c(Cc2ccno2)nc(C(F)(F)F)c1Cc1ccc(Cl)c(Cl)c1 [Example 96, 5-(3,4-dichlorobenzylylmethyl)-6-(trifluoromethyl)pyrimidin-4(3H)-one]
27 | 35 | 480 | O=c1[nH]c(-c2cccnc2)nc(C(F)(F)F)c1Cc1ccc(Cl)c(Cl)c1 [Example 27, 5-(3,4-dichlorobenzyl)-2-(pyridin-3-yl)-6-(trifluoromethyl)pyrimidin-4(3H)-one]
